{"source": "patent EP2340832A1", "about": "“Morphinan-6-one compounds for the treatment or prevention of neurodegenerative diseases” (Universität Innsbruck, priority 2009, dated 2011)", "key": {"[1]": {"test_system": "frontal cortex synaptosomes", "assay": "ACh release from synaptosomes (15 mM K+-evoked [3H]-ACh release, superfusion)", "format": "cell-based, male Sprague Dawley rats", "procedure": "Preparation of synaptosomes: synaptosomes were prepared from brain frontal cortex of male Sprague Dawley rats (4 months old). The frontal cortex was rapidly dissected on ice and homogenized in 40 volumes of 0.32 M sucrose buffered at pH 7.4 with 0.01 M sodium phosphate. The homogenate was centrifuged at 1,000 g for 5 min. The crude synaptosomal pellet was obtained by centrifugation of the supernatant at 15,000 g for 20 min and was resuspended in 5 ml basal medium (125 mM Nacl, 3 mM KCI, 1.2 mM MgS04, 1.2 mM CaCl2, 1.0 mM NaH2PO4, 22 mM NaHCO3 and 10 mM glucose) which had been gassed with 95% O2 - 5% CO2 at 37 °C, pH 7.2 - 7.4.\nSuperfusion protocol: The synaptosomal suspension was incubated with [^3H]-choline (0.03 µM, 17.5x10^6 Bq/g) for 15 min at 37 °C. Then, the suspension was diluted (1:8) and aliquots were applied on filters in a continuous superfusion system with parallel chambers maintained at 37 °C. The media used for superfusion were basal medium and 15 mM K^+-containing stimulation medium. Both media were supplemented with ACh (1 µM) to facilitate the effectiveness of an allosteric potentiating ligand at the nicotine receptor and with atropine (0.1 µM) to block M2 presynaptic receptors. Synaptosomes were superfused with basal medium for 30 min to reach a constant outflow of [^3H]-ACh. Under these experimental conditions, the radioactivity released consisted largely of newly synthesized [^3H]-ACh. The K^+-stimulated release of [^3H]-ACh was determined in 2 subsequently collected fractions: 6 min basal release (superfusion with basal medium) and 6 min K^+-evoked release (superfusion for 1.5 min with 15 mM K^+-containing medium followed by […] basal medium). The test compounds galantamine, 4 and 2 were present in the superfusion medium concomitantly with 15 mM K^+ (for 1.5 min). Basal release of [^3H]-ACh (continuous superfusion with basal medium) was determined by collection of a 6 min sample followed by four subsequent 2 min samples. Aliquots of samples were mixed with scintillation liquid and the radioactivity quantified with a scintillation counter. The radioactivity bound to the filters was also measured.\nStatistical analysis: The amount of [^3H]-ACh released in each sample was calculated as fraction of total synaptosomal tritium at the start of the respective collection period (tritium in the sample / sum of tritium in the respective fractions and in the synaptosomes on the filter). K^+-evoked release was expressed as percentage of basal release rate. Each n=1 represents the mean of an experiment with one synaptosomal preparation in at least 3 superfusion chambers. Statistical significance of group variances was calculated by one way ANOVA followed by Bonferroni's test."}, "[2]": {"target": "µ opioid receptor (Rattus norvegicus, UniProt P33535)", "sequence (P33535 whole entry)": "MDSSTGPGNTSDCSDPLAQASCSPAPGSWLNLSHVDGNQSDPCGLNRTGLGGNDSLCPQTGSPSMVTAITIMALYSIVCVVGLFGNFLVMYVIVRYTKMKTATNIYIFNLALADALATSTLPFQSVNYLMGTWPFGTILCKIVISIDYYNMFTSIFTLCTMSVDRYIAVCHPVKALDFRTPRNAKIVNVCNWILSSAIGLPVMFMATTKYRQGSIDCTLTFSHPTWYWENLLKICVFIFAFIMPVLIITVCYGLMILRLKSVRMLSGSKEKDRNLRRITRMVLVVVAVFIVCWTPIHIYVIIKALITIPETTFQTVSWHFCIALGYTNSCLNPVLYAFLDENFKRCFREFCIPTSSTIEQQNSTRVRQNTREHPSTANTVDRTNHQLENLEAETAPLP", "assay": "[35S]GTPγS functional assay, rat brain membranes, µ receptor", "format": "biochemical, Sprague-Dawley rat", "design": "Membrane fractions were prepared from Sprague-Dawley rat or guinea pig brains; from tissue; host or cells: Sprague-Dawley rat brain (without cerebella) membranes", "procedure": "(§1) Membrane fractions were prepared from Sprague-Dawley rat or guinea pig brains as described above. To determine binding of [^35S]GTPyS, rat or guinea pig brain membranes (10 µg of protein) were incubated for 60 min at 30 °C in Tris-EGTA buffer (50 mM Tris-HCl buffer, 3 mM MgCl2, 1 mM EGTA, […], pH 7.4) containing 30 µM GDP, 0.05 nM [^35S]GTPyS and appropriate concentrations of the respective compounds according to the present invention in a final volume of 1 ml. The reaction was terminated by vacuum filtration through Whatman GF/B glass fibre filters. Filters were washed three times with ice-cold 50 mM Tris-HCI buffer (pH 7.4) and the bound radioactivity was measured by liquid scintillation counting (Beckman Coulter™ LS6500). Basal activity was determined by subtracting the non-specific binding (measured in the presence of 100 µM unlabelled GTPyS) from the total binding (measured in the absence of the compound).\n(§2) Stimulation produced by the compound is given as percentage of the basal activity (given as 100%). Functional data, EC50 (nM; half maximal effective concentration) and maximal stimulation Emax (% stimulation over basal level; maximal effective concentration), were calculated by using nonlinear regression analysis and sigmoidal curve fitting GraphPad Prism (San Diego, CA, USA) program. The values are expressed as the mean ± S.E.M of at least 3 independent experiments, each performed in triplicate. Statistical analysis was carried out using SPSS software (SPSS Inc., Chicago, lL, USA) and the Student T-test was used to compare different assay conditions. A ρ value < 0.05 was considered statistically significant."}, "[3]": {"target": "T1, δ receptor (Rattus norvegicus, UniProt P33533)", "T1 construct": "Membrane fractions were prepared from Sprague-Dawley rat or guinea pig brains; from tissue; host or cells: Sprague-Dawley rat brain (without cerebella) membranes", "T1 sequence (P33533 whole entry)": "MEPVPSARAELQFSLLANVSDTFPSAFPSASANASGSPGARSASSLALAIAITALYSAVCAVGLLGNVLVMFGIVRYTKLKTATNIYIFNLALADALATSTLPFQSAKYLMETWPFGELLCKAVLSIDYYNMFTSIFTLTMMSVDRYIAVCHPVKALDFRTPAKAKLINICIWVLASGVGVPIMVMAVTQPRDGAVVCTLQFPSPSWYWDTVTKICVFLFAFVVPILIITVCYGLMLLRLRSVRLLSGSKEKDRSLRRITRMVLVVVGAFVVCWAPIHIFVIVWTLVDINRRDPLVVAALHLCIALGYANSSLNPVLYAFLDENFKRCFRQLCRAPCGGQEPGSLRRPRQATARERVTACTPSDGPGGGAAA", "assay": "[35S]GTPγS functional assay, rat brain membranes, δ receptor", "format": "biochemical, Sprague-Dawley rat", "procedure": "as §1, §2"}, "[4]": {"target": "T2, K receptor (Cavia porcellus, UniProt P41144)", "T2 construct": "Membrane fractions were prepared from Sprague-Dawley rat or guinea pig brains; from tissue; host or cells: guinea pig brain (without cerebella) membranes", "T2 sequence (P41144 whole entry)": "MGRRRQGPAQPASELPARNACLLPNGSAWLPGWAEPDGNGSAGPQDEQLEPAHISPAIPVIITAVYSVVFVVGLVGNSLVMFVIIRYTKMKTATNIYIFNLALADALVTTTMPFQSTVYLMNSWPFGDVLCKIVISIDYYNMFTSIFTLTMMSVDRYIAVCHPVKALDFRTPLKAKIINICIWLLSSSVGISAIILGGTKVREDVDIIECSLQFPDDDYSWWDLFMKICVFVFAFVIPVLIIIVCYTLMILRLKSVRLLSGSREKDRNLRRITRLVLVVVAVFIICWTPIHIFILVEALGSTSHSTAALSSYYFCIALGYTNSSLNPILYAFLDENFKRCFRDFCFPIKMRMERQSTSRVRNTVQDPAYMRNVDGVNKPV", "format": "biochemical, guinea pig"}}, "data": [{"smiles": "C=CCN1CC[C@]23CC(=O)CC[C@H]2[C@H]1Cc1cccc(OC)c13", "note": "[Compound 4, 4-methoxy-N-allylmorphinan-6-one]", "values": [{"measurement": "effect on K+-evoked ACh release in frontal-cortex synaptosomes", "setting": "[1]; 0.01 to 10 µM", "result": "did not influence ACh release"}, {"measurement": "function at the µ opioid receptor", "setting": "[2]", "result": "antagonistic function"}, {"measurement": "[35S]GTPγS binding on co-incubation with cyprodime versus antagonist alone", "setting": "[2]; 10 µM each, rat brain membranes", "result": "did not produce any significant increase"}, {"measurement": "effect on [35S]GTPγS binding stimulated by DAMGO", "setting": "[2]; compound 10 µM, DAMGO 10 µM, rat brain membranes", "result": "significantly decreased"}, {"measurement": "[35S]GTPγS binding in the presence of the compound alone", "setting": "[2]; rat brain membranes, compared with DAMGO", "result": "no increase"}, {"measurement": "[35S]GTPγS binding on co-incubation with naltrindole versus antagonist alone", "setting": "[3]; 10 µM each", "result": "did not produce any significant increase"}, {"measurement": "effect on [35S]GTPγS binding stimulated by SNC 80", "setting": "[3]; compound 10 µM, SNC 80 10 µM", "result": "did not cause any significant changes"}, {"measurement": "[35S]GTPγS binding in the presence of the compound alone", "setting": "[4]", "result": "no increase"}, {"measurement": "[35S]GTPγS binding on co-incubation with Nor-BNI versus antagonist alone", "setting": "[4]", "result": "did not produce any significant increase"}, {"measurement": "effect on [35S]GTPγS binding stimulated by U69,593", "setting": "[4]", "result": "slight, but significant decrease"}]}, {"smiles": "O=CN1CC[C@]23CC(=O)CC[C@H]2[C@H]1Cc1c(O)ccc(O)c13", "note": "[Compound 1, 1,4-dihydroxy-N-formylmorphinan-6-one]", "values": [{"measurement": "concentration of maximal effect on stimulation-evoked ACh release", "setting": "[1]; 15 mM K+", "result": 50, "unit": "µM"}, {"measurement": "influence of the nAChR antagonist mecamylamine on the compound-induced release", "setting": "[1]; at the maximally effective concentration (1: 50 µM)", "result": "did not influence"}, {"measurement": "effect on stimulation-evoked ACh release", "setting": "[1]; lower (0.1 and 1 µM) and higher concentrations (100 µM)", "result": "ineffective"}]}]}
